The values below come from patent publication US20080311138A1 (priority 2004, published 2008).

No end group written: not given here.

In one data set the test system is tetanus toxoid (TT). Details: species or system mice (C57/BL6). Conditions: mouse, in vivo.
Another data set has as its system tetanus toxin. Details: species or system mice (C57/BL6). The settings on record: mouse, in vivo.
The subject of a further data set is TT. Also noted: species or system mice (C57/BL6). Conditions: mouse, in vivo.
For data set [1] the following is noted: circulating GLP-1; inactivated by N-terminal cleavage by DPP-IV; cited from earlier work.
In another data set the test system is VIP. Conditions: in man; cited from earlier work.

For “GLP-1 (HDRHAGTTSDVSSYGAAKAWVKGRG; listed as Homo sapiens)”, the “anti-TT serum IgA response (GMT)” value in the data set on tetanus toxoid (TT) is 959. For the same substance, in the data set with tetanus toxin, the “paralysis after tetanus toxin challenge” value is reported as “no sign of paralysis” and the “survivors after tetanus toxin challenge” value is recorded as 8/8. Further, in the data set with TT, the “range of anti-TT IgG titer” value is recorded as 16,384-131,072. Besides, in data set [1], the half life result was “several minutes”.
On to “VIP 2-28: Gastrointestinal peptide, residues 2-28 of Vasoactive Intestinal Peptide (SDAVFTDNYTRLRKQMAVKKYLNSILN; ends and bridges not checked; UniProt P01282 126-152, looked up, fragment)”, for which the VIP agonist activity entry in the data set with VIP is on record as “full VIP agonist”.
